According to US20210113492A1, “METHOD FOR INHIBITING PROLIFERATION AND METASTASIS OF CANCER CELLS BY USING NAPHTHOQUINONE DERIVATIVE” (National Tsing Hua University, priority 2019, published 2021):

Target: T1, NQO1 (Homo sapiens, UniProt P15559)
T1 construct: endogenous in cells; host or cells: OC3-IV2 (human oral squamous cell carcinoma), cytosolic fraction / lysate supernatant
Test: NQO1 enzymatic activity assay (substrate reduction with NADH and WST1)
Assay type: biochemical
Settings: cytosolic fractions of OC3-IV2 cells; isoplumbagin 5 μM and 10 μM, menadione 1X and 2X
Description: FIG. 4 proves that isoplumbagin is a substrate of NQO1. The cytosolic fractions of OC3-IV2 cells were used for the NQO1 enzymatic activity assay. The NQO1 enzyme activity was calculated by measuring the simultaneous reduction of menadione or isoplumbagin with cofactor NADH and WST1 (a highly sensitive tetrazolium reagent) which leads to increased absorbance at 450 nm. NQO1 activity assay kit (#ab184867) was purchased from Abcam (Cambridge, Mass., USA). OC3-IV2 cells were lysed with 1X extraction buffer containing 1 mM phenylmethylsulfonyl fluoride (PMSF) for 15 min on ice, and then centrifuged at 17,000×g at 4° C. for 20 min. The supernatant was collected and then the protein concentration of each sample was determined by BCA assays (Santa Cruz Biotechnology). Diluted sample and reaction buffer were added into 96-wells plate containing menadione (1X and 2X) or different concentrations of isoplumbagin (5 μM and 10 μM) with cofactor NADH and WST1. The absorbance of reduced WST1 was measured at 450 nm wavelengths by a spectrophotometer. Data from three independent experiments are presented as mean ±SEM (*P<0.05 compared with no substrate, paired Student's t-test).

T1 sequence (P15559 whole entry): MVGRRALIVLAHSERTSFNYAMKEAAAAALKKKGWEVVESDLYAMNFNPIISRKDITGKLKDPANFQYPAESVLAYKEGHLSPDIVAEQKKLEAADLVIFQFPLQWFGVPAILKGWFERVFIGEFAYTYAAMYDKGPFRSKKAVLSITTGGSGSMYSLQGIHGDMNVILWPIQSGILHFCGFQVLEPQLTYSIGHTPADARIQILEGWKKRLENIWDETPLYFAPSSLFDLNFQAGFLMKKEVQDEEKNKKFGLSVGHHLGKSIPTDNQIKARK

CC1=CC(=O)c2ccccc2C1=O [menadione, reference compound]
substrate of NQO1 (reduction with NADH and WST1, absorbance at 450 nm): substrates of NQO1
